Measurements reported in US20260240208A1, “FLAVANONE COMPOUNDS AND THEIR USE AS FLAVOR MODIFIERS” (Firmenich Incorporated, priority 2023, published 2026).
Each block holds one molecule with its values, some of them ahead of it.

Legend:
[1] = sensory panel paired comparison: sweetness alone versus 1.5 wt % sucrose; assay type: in vivo, human
Procedure: The test samples were prepared from Compound 101 (4 ppm aqueous solution) and Compound 103 (7 ppm aqueous solution). Each of the test samples was evaluated by a sensory panel for its sweetness relative to 1.5 wt % sucrose solution. The panelists were asked to choose the sweeter sample in a pair of a compound test sample and a 1.5 wt % solution of sucrose. For Compound 101, the taste sample was selected 14 times as sweeter, while the sucrose control was selected 46 times out of total 60 times. For Compound 103, the taste sample was selected 14 times as sweeter, while the sucrose control was selected 55 times out of total 69 times.

[2] = sensory panel: sweetness enhancement of sucrose, rating on a scale of 0 to 10; assay type: in vivo, human; conditions: mean panel score, scale 0 to 10
Procedure: Two control samples were prepared of 6 wt % sucrose and 7.5 wt % sucrose in Low sodium buffer. Two test samples were prepared: one at 6 wt % sucrose plus 4 ppm of Compound 101, and the other at 6 wt % sucrose plus 7 ppm of Compound 103. Panelists were asked to evaluate the four samples and rate the sweetness on a scale of 0 to 10, with a higher rating indicating greater sweetness.

[3] = target: T1, TIR sweet taste receptor (Homo sapiens, UniProt Q7RTX0+Q8TE23); test: in vitro cell-based assay with cells overexpressing the sweet taste receptor, sweet dose-response; conditions: for EC50: cells overexpressing TIR sweet taste receptor, sweet dose-response curves
T1 construct: expressed in transfected cells
T1 sequence (Q8TE23 20-839): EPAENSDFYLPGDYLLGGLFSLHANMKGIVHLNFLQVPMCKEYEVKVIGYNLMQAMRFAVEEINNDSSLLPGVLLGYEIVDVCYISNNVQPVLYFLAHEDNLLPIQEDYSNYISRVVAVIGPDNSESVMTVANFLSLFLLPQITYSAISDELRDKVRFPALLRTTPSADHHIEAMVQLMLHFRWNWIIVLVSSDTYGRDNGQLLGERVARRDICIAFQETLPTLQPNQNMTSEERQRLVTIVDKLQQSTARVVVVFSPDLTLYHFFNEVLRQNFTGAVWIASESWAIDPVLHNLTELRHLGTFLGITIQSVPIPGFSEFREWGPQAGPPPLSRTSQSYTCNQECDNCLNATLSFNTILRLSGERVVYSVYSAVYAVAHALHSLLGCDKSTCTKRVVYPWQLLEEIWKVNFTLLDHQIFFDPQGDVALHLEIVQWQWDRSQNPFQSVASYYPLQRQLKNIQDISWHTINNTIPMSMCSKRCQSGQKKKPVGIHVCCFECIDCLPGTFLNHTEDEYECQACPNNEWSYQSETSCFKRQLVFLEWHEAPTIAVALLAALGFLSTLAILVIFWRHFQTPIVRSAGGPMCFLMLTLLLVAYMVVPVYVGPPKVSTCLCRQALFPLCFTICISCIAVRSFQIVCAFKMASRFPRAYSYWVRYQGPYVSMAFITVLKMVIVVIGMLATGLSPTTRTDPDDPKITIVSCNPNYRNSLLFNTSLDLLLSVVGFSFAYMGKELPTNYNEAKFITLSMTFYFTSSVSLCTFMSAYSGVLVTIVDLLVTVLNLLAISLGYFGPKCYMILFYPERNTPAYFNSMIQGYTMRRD
T1 sequence (Q7RTX0 21-852): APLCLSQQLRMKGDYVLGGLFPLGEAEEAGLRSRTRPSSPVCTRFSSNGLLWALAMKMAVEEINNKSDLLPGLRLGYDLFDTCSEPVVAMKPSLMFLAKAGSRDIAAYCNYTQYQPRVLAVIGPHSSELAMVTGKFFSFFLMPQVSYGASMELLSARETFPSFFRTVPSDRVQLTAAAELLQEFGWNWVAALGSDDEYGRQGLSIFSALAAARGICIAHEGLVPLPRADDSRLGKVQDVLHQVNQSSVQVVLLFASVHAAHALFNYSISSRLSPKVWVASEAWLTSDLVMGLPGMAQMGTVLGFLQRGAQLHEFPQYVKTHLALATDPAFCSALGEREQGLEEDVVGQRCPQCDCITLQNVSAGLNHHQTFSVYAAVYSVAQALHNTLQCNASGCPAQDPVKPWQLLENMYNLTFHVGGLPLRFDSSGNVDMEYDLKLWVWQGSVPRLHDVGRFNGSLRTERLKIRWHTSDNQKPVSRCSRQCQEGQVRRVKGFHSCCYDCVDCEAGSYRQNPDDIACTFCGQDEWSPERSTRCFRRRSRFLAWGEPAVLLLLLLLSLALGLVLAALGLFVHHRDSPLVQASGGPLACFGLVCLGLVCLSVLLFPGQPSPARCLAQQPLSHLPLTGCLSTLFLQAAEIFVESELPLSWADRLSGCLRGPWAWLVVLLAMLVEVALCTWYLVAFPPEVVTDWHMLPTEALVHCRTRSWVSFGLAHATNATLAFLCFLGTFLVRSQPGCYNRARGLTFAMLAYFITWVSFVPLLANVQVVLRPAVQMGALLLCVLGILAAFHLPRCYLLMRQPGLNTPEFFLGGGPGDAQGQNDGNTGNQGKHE
Procedure: Each of Compounds 101-106 was synthesized. Thereafter, the compounds were tested in an in vitro cell-based assay having cells that overexpress the TIR sweet taste receptor. The sweet dose-response curves were recorded and the EC50 was determined. Table 2 summarizes calculated EC50 values for certain tested compounds.

[4] = pair: Compound 101 4 ppm aqueous solution vs 1.5 wt % sucrose solution, total 60 times
[5] = pair: Compound 103 7 ppm aqueous solution vs 1.5 wt % sucrose solution, total 69 times

Compound: CCC(=O)OC1C(=O)c2ccc(O)cc2OC1c1ccc(OC)c(O)c1 (stereo not drawn) [Compound 104, 7-hydroxy-2-(3-hydroxy-4-methoxyphenyl)-4-oxochroman-3-yl propionate]
EC50 [3]: ~10 µM

Compound: CC(=O)OC1C(=O)c2c(O)cccc2OC1c1ccc(O)cc1 (stereo not drawn) [Compound 106, 5-hydroxy-2-(4-hydroxyphenyl)-4-oxochroman-3-yl acetate]
EC50 [3]: ~45 µM

Compound: OC[C@H]1O[C@@](CO)(O[C@H]2O[C@H](CO)[C@@H](O)[C@H](O)[C@H]2O)[C@@H](O)[C@@H]1O [sucrose, reference compound]
times selected as sweeter [1, 4]: 46 times
times selected as sweeter [1, 5]: 55 times
Sweetness Score ([2]; 6 wt % sucrose alone, low sodium buffer (control)): 6.6
Sweetness Score ([2]; 7.5 wt % sucrose alone, low sodium buffer (control)): 8.6

The next lines start with results.

EC50 [3]: ~1 µM
Compound: COc1ccc(C2Oc3cccc(O)c3C(=O)C2OC(C)=O)cc1O (stereo not drawn) [Compound 101, 5-hydroxy-2-(3-hydroxy-4-methoxy-phenyl)-4-oxochroman-3-yl acetate]
times selected as sweeter [1, 4]: 14 times
Sweetness Score ([2]; 6 wt % sucrose + 4 ppm compound): 9.8

EC50 [3]: ~2 µM
agonist character ([3]; remark printed beside the EC50): partial agonist
Compound: CCC(=O)OC1C(=O)c2c(O)cccc2OC1c1ccc(OC)c(O)c1 (stereo not drawn) [Compound 102, 5-hydroxy-2-(3-hydroxy-4-methoxy-phenyl)-4-oxochroman-3-yl propionate]

EC50 [3]: ~8 µM
Compound: COc1ccc(C2Oc3cc(O)ccc3C(=O)C2OC(C)=O)cc1O (stereo not drawn) [Compound 103, 7-hydroxy-2-(3-hydroxy-4-methoxyphenyl)-4-oxochroman-3-yl acetate]
times selected as sweeter [1, 5]: 14 times
Sweetness Score ([2]; 6 wt % sucrose + 7 ppm compound): 8.8

EC50 [3]: ~5 µM
Compound: CCC(=O)OC1C(=O)c2c(O)cc(O)cc2OC1c1ccc(OC)c(O)c1 (stereo not drawn) [Compound 105, 5,7-dihydroxy-2-(3-hydroxy-4-methoxyphenyl)-4-oxochroman-3-yl propionate]
